Data set [1] relates to epimastigote forms of T. cruzi, Y strain. The experiment in a line: Trypanocidal activity on epimastigote forms (growth inhibition, Neubauer chamber count). The class given is cell-based, Trypanosoma cruzi. The procedure:
(§1) Initially, the prepared esters were submitted to in vitro tests using the microdilution technique in 96-well plates to evaluate the trypanocidal activity against the epimastigote evolutionary form at different concentrations (200–3.12 μg/mL). Then, the compounds with the best activity were tested against the trypomastigote form of T. cruzi. In both assays, IC50 values were calculated; a compound is considered to have trypanocidal activity when IC50 <40 μM [21]. The results are expressed in Table 1.
Initially, epimastigotes were cultured and distributed in 96-well plates at a density of 10^6 cells/mL in liver infusion tryptose medium supplemented with 10% fetal bovine serum (FBS) and 1% antibiotic. Then, the cells were treated with piplartine analogues at different concentrations and incubated at 28 °C for 24 h. To quantify the growth inhibition of the parasites, a Neubauer chamber was used, and the IC50 was defined.

A further data set has as its system T. cruzi epimastigotes. The experiment in a line: Mitochondrial transmembrane potential, rhodamine 123 flow cytometry. The class given is cell-based, Trypanosoma cruzi. The note with it: 157 and 314 µM, 24 h. The procedure:
In addition, the mitochondrial damage exerted by 11 on the parasite was evaluated through the mitochondrial transmembrane potential assay using the fluorescent dye rhodamine 123 (Rho 123).
Initially, 11 (157 and 314 µM) and epimastigote forms (10^6 cells/mL) were added in 24-well plates. After 24 h, the cells were centrifuged and washed with phosphate-buffered saline. Subsequently, the cells were resuspended in 100 µL of phosphate-buffered saline, and 5 µL of Rho123 solution (10 µg/mL) was added. Thus, the samples were incubated in the dark for 30 min, washed, and resuspended with phosphate-buffered saline (500 µL/tube) for analysis by flow cytometry. Results were evaluated by relative fluorescence intensity, calculated as described above.
For orientation: Flow cytometry measures light scatter and fluorescence of single cells or particles in a stream.

The test system of data set [2] is epimastigote cells of T. cruzi. Kind of data set: Cytoplasmic reactive oxygen species, DCFH-DA flow cytometry. The data set is classed as cell-based, Trypanosoma cruzi. The following applies: 157 and 314 µM, 24 h. The procedure:
To elucidate the mechanism of action of 11, the increase in the concentration of ROS inside epimastigote cells of T. cruzi was evaluated through fluorescent techniques using 2′,7′–dichlorofluorescein diacetate (DCFH-DA). The results are illustrated in Figure 2 and Figure 3.
The DCFH-DA assay was used to evaluate the increase in ROS concentration in the cytoplasm of epimastigote cells treated with 11. Initially, 10^6 epimastigote cells/mL were added to 24-well plates in the presence of 11 (157 μM and 314 µM). After 3 h, 10 µL of a solution of DCFH-DA (20 µM in DMSO) was added. After 24 h, the cells were centrifuged (2800 RPM for 7 min), washed, and resuspended in 500 µL of phosphate buffered saline for flow cytometer analysis. Thus, the level of labeling in each group was analyzed by the geometric mean of the fluorescence intensity, and the results were expressed as relative fluorescence intensity according to the following formula (Equation (1)): (1) Relative fluorescence=mTest/mControl mTEST = geometric mean of the interest group; mCONTROL = geometric mean of the control group.

The subject of data set [3] is trypomastigote forms of T. cruzi, Y strain. The experiment in a line: Trypanocidal activity on trypomastigote forms (viability by counting). The class given is cell-based, Trypanosoma cruzi. The procedure: as §1
Trypomastigote forms were obtained by infecting LLC-MK2 cells with the parasite; in this way, the cells were incubated for 24 h in T-25/75 cm^2 flasks at 37 °C in an atmosphere with 5% CO2 in DMEM medium supplemented with 2% FBS and 1% antibiotic. Subsequently, the trypomastigote forms were distributed in 96-well plates treated with piplartine analogues at different concentrations (200; 100; 50; 25; 12.5; 6.25; 3.12 μg/mL) and incubated at 37 °C for 24 h. The assessment of cell viability was performed by counting, and the IC50 was defined.

In data set [4] the test system is epimastigote forms of T. cruzi. The experiment in a line: Scanning electron microscopy of morphological changes. The following applies: 24 h of treatment, 157 µM. The class given is cell-based, Trypanosoma cruzi. The procedure: In addition, scanning electron microscopy was used to analyze possible morphological alterations of epimastigote forms treated with compound 11. […] Similar results were obtained by treating epimastigote forms with pentyl p-coumarate.
To evaluate the changes induced by 11 in the ultrastructure of T. cruzi, the epimastigote forms were incubated with them for 24 h. After this period, the samples were centrifuged (5000 rpm; 10 min), the supernatant discarded, and the pellet resuspended in glutaraldehyde solution (2.5%) and incubated for 2 h. The fixed samples were again centrifuged and exposed to increasing concentrations of ethanol (30, 50, 70, 90, and 100%) for dehydration, followed by centrifugation (5000 rpm; 5 min). Finally, the cells were transferred to the surface of circular coverslips (15 mm) and dried in a CO2 oven. The coverslips were covered with a gold layer (20 nm thick) using the QT150 ES-Quorum Metallizer and analyzed in a Quanta 450 FEG-FEI scanning electron microscope to observe changes in the three-dimensional structure of the epimastigote forms of T. cruzi.

Data set [5] concerns epimastigote forms of T. cruzi. Kind of data set: Cell death profile, 7-AAD / annexin V-PE labeling. The class given is cell-based, Trypanosoma cruzi. The note with it: 157 and 314 µM, 24 h. The procedure:
Epimastigote forms were used to analyze the cell death profile through labeling with AxPE and 7-AAD. Initially, the cells were divided into four cell populations: viable cells—with a low level of labeling (7AAD−/AxPE−); necrotic cells—labeled with 7-AAD (7AAD+/AxPE−); apoptotic cells—labeled with annexin V-PE (7AAD−/AxPE+); and cells in late apoptosis—doubly labeled (7AAD+/AxPE+).
The cells were treated with 11 for 24 h at concentrations of 157 and 314 µM.
The epimastigote forms of T. cruzi were cultivated at a density of 10^6 cells/mL in the presence of 11 (157 and 314 µM) for 24 h in a stove. Then, the cells were transferred to cytometry tubes, centrifuged at 4000 RPM for 5 min and washed twice with phosphate-buffered saline and binding buffer (pH 7.4; a compound of HEPES solution 10 mM; NaCl 140 mM; and CaCl2 2.5 mm). After the last centrifugation, the pellet was resuspended in 100 µL binding buffer, 5 µL 7-AAD (0.5 mg/mL), and 5 µL Ax/PE. The procedure was performed using a commercial kit (Annexin V PE Apoptosis Detection Kit I, BD Biosciences) and following the manufacturer’s guidelines. After 15 min of incubation in the dark, 400 µL of binding buffer was added to each tube, and the cells were analyzed on the FACSCalibur (BD Biosciences). For each tube, a minimum of 10^4 cells were analyzed to quantify the percentage of unlabeled cells and were either singly or double labeled with 7-AAD and Ax/PE. For this, an argon laser (488 nm) was used to excite the fluorochromes. Ax/PE-labeled cells were read by the FL2 detector (563 to 606 nm, yellow fluorescence), while 7-AAD-labeled cells were read at 615 to 645 nm wavelength (red fluorescence, FL3 detector).

Data set [6] is described as follows: In vitro cytotoxicity, MTT assay. The data set is classed as cell-based, Rhesus monkey. The note with it: Rhesus monkey, LLC-MK2 renal epithelial cells; MTT, 24 h; read-out: LLCK-MK2 CC50. The procedure: (§2) The compounds were considered selective for the parasite when SI ≥ 10 [21]. The results are expressed in Table 2.
(§3) For the cytotoxicity analysis, the (3-[4,5-dimethylthiazol-2-yl]-2,5 diphenyl tetrazolium bromide) (MTT) assay was used, in which the LLC-MK2 cells were cultured in Dulbecco’s Modified Eagle Medium (DMEM), then exposed to the piplartine analogues at different concentrations (25–200 μg/mL) and incubated for 24 h at 37 °C. Then MTT was added, and the cells were incubated for 4 h, after which 10% sodium dodecyl sulfate was added. […] To calculate the relative cell viability, cells treated only with sterile phosphate-buffered saline were used as a negative control. The experiments were conducted in triplicates.
On the technique in general: Tetrazolium dyes change colour on reduction, which living cells bring about.

A further data set concerns LLC-MK2 cells. The experiment in a line: In vitro cytotoxicity, MTT assay. The class given is cell-based, Rhesus monkey. The procedure:
as §2, §3

Data set [7] concerns epimastigote form of T. cruzi. Also noted: method as in PMID 31775321. The following applies: cited from earlier work.
Data set [8] deals with trypomastigote forms of T. cruzi. Also noted: method as in PMID 31775321. The following applies: read-out: IC50 trypomastigote form; cited from earlier work.
[9] abbreviates: Trypanosoma cruzi, Y strain, 24 h.

Several values for one entry are separate records, joined by “and”; a condition that tells them apart may be missing. Equal entries are not always repeated.

As a reminder, the IC50 is the concentration needed to halve the response being measured. The CC50 is the concentration at which the toxic effect on the cells reaches its halfway point. As for `COc1cc(/C=C/C(=O)OCc2ccco2)cc(OC)c1OC` [Compound 11, (E)-furan-2-ylmethyl 3-(3,4,5-trimethoxyphenyl)acrylate], the IC50 in [1] (setting [9]) was 8.98 µg/mL and 28.2 µM. In addition, the “Selectivity Index (SI) Epimastigote” value in data set [1] (ratio CC50 (LLC-MK2) / IC50 epimastigote) is listed as above 22.2. In addition, the “accumulation of rhodamine 123 (mitochondrial transmembrane potential) vs control” value in the data set with T. cruzi epimastigotes was “reduction in the accumulation of rhodamine”. Further, the “relative fluorescence DCFH-DA (cytoplasmic ROS) vs control” value in [2] is on record as “increase in relative fluorescence”. Moreover, in [3] (setting [9]), the IC50 was 15 µg/mL and 47 µM. Besides, the “Selectivity Index (SI) Trypomastigote” value in [3] (ratio CC50 (LLC-MK2) / IC50 trypomastigote) is above 13.4. Further, in data set [4], the “ultrastructural alterations by scanning electron microscopy” value was “pore formation and content leakage in the cytoplasm”. In addition, in [5], the “apoptotic cells (7AAD−/AxPE+) vs control” value was “increase in apoptotic cells”, the “cells in late apoptosis (7AAD+/AxPE+) vs control” value is “increase in cells in late apoptosis”, the “percentage of necrotic cells (7AAD+/AxPE−) vs control” value was “increase in the percentage of necrotic cells” and the “percentage of viable cells (7AAD−/AxPE−) vs control” value is recorded as “reduction in the percentage of viable cells”. For the same compound, in data set [6], the CC50 at 24 h was > 200 µg/mL and > 628 µM. Besides, the “toxicity on LLC-MK2 host cells (in words)” value in the data set on LLC-MK2 cells (highest concentration tested (200 μg/mL)) was “did not show toxicity at the highest concentration tested”. For the same compound, the “selectivity for the parasite (SI)” value in the data set on LLC-MK2 cells (parasite form not specified, conclusions) is recorded as above 10.

As to `CCCCCOC(=O)/C=C/c1ccc(O)cc1` [pentyl p-coumarate], the IC50 is 5.16 µM in data set [7] and 61.6 µM in data set [8].

(Values after article PMC10254306, “Piplartine-Inspired 3,4,5-Trimethoxycinnamates: Trypanocidal, Mechanism of Action, and In Silico Evaluation” (Molecules, 2023).)
